Measurements from patent US11197863B2, “Inhibitors of polo-like kinase 4 (PLK4) for treating pediatric embryonal tumors” (ANN AND ROBERT H. LURIE CHILDREN'S HOSPITAL OF CHICAGO, priority 2017, dated 2021).

What was measured:
AURKC = AURKC (Homo sapiens, UniProt Q9UQB9); assay: Kinase activity screening (SelectScreen Kinase Profiling); assay type: biochemical; conditions: read-out: kinase activity inhibited
Description: (§3) These assays utilized various formats appropriate to the kinase, its substrate and its activity. Formats included the Z-LYTE™ Kinase Assay that determines the differential sensitivity of phosphorylated and non-phosphorylated peptide substrates to proteolytic cleavage using a FRET-based readout, the Adapta™ Universal Kinase Assay that employs a homogeneous, fluorescence-based immunoassay for the detection of ADP produced by kinases and the LanthaScreen™ Eu Kinase Binding Assay that utilizes an Alexa Fluor™ conjugated “tracer” and an Eu-labeled anti-tag antibody to measure binding of a compound to the kinase target [62].

MUSK = MUSK (Homo sapiens, UniProt O15146); assay: as above; assay type: biochemical; conditions: 10-point titration
Chain of MUSK (O15146 24-869): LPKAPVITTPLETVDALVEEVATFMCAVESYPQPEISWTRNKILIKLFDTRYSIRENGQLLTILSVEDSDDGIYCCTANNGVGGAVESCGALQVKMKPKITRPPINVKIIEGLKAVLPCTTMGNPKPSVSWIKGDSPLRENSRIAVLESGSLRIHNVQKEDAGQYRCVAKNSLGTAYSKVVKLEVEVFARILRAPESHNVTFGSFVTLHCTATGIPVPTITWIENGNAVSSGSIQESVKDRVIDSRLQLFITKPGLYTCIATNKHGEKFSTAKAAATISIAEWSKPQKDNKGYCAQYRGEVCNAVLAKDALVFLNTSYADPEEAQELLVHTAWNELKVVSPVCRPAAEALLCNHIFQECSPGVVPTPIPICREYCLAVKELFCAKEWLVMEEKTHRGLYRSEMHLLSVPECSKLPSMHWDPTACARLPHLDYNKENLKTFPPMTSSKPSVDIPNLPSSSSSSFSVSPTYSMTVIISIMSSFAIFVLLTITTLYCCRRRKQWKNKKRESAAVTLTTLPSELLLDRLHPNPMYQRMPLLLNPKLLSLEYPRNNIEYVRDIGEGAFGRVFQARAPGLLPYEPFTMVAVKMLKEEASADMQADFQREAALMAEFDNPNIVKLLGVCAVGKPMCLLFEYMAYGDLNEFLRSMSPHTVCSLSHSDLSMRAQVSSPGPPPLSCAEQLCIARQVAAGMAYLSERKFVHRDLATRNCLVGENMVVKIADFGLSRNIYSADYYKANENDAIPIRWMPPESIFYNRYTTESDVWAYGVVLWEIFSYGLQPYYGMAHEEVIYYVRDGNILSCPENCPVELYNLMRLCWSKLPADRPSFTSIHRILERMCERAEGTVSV
Description: as §3

TEK = TEK (Homo sapiens, UniProt Q02763); assay: as above; assay type: biochemical; conditions: 10-point titration
Chain of TEK (Q02763 23-1124): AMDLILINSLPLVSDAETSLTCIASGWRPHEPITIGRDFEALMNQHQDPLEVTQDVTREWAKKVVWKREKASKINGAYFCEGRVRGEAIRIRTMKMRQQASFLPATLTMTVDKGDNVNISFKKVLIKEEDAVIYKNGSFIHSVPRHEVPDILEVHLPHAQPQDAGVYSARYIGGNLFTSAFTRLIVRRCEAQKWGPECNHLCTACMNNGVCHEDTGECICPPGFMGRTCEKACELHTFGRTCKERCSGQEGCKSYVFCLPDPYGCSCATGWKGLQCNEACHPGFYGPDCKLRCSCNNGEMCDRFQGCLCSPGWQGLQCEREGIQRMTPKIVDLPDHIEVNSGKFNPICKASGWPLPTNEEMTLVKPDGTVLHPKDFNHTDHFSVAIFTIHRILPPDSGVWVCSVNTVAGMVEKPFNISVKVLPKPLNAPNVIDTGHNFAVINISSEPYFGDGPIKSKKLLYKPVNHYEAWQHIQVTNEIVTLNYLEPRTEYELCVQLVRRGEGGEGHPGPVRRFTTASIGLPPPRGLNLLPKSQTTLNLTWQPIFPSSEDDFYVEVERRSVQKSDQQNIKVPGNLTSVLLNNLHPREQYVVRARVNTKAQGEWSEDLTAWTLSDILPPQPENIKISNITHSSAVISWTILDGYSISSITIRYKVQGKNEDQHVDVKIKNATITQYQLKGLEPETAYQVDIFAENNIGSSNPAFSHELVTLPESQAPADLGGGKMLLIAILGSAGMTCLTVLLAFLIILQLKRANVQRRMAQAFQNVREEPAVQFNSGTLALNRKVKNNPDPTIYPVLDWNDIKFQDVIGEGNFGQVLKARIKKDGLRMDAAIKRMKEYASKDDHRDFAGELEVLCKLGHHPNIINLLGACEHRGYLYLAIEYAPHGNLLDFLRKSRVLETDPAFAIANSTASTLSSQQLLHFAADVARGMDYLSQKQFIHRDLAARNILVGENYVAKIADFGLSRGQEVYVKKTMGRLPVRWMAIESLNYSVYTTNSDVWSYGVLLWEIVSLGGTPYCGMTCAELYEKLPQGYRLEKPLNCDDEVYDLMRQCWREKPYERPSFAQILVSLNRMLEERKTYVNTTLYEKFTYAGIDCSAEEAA
Description: as §3

[1] = tested on: CYP450 isoenzymes 1A2, 2B6, 2C8, 2C9, 2C19, 2D6, 2J2, 3A4 and 3A5 (except 3A4 BOMCC); assay: P450 profiling with Vivid substrates; assay type: in vitro ADME; conditions: human, probe Vivid substrates; isoenzymes recommended for testing by FDA guidance except 3A4 BOMCC; 500 nM highest tested concentration
[2] = tested on: HFF-SCC058 human fibroblasts; assay: Invasion and migration assays (Transwell); assay type: cell-based; conditions: 100 nM, 24 hr
Method: Both migration and invasion were assessed using a 24-well Transwell chamber system (Corning, USA).[35] MON cells were plated at 20,000 per well for cell migration and at 50,000 per well coated with matrigel (200 μg/ml, 3 hr of solidification) for cell invasion. HFF-SCC058 cells were used as negative controls. […] All experiments were performed in triplicates.

[3] = tested on: G401, BT-12, BT-16, DAOY and D283 cell lines; assay: Immunofluorescence for gamma-tubulin (centriole number); assay type: cell-based, human
Method: (§1) The cells were then blocked in blocking buffer (5% BSA (Jackson Immuno Research Laboratories Inc., USA) in PBST) for 1 hour at RT. The primary antibody ([…] 1:500, Sigma, USA) diluted in 1% BSA in PBST was then added and incubated at 4° C. overnight. Then, the cells were washed with 1×PBS thrice. Secondary antibody (Anti-Rabbit IgG (H+L) F (ab′) 2, 1:500, Sigma, USA) diluted in 1% BSA in PBST was added and incubated at RT for 2 hours. Three time washes with IX PBS were performed. Then, 1 mL of DAPI (Thermo Fisher Scientific, USA) in PBS (0.5 μl of DAPI in 10 ml PBS) was added to the cells and incubated for 10 min at RT. Finally, 3 time washes with 1×PBS were performed and slides were mounted using Mounting Medium (Thermo Fisher Scientific, USA).

MON rhabdoid cells = assay: as above; assay type: cell-based, human; conditions: 48 hours
Method: as §1

[4] = tested on: PLK4 mRNA in MON rhabdoid cells; assay: qPCR for PLK4 expression; assay type: cell-based, human; conditions: 10, 50, 100 and 500 nM for 24, 48 and 72 hours vs 0.1% DMSO
Method: The expression of PLK4 (Hs00179514_m1) in each cell line was verified by TaqMan GE assays (Thermo Fisher Scientific, USA) using the housekeeping gene GAPDH (Hs02758991_g1) as reference. Total RNA (2 μg) was used to make cDNA using the Applied Biosystems High Capacity RNA-to-cDNA kit (Thermo Fisher Scientific). Reactions were performed in triplicate with adequate positive and negative controls. The normalized expression levels were calculated by […] method using the housekeeping gene and a pool of all samples as calibrator.

[5] = tested on: MON, G401, BT-12 and BT-16 cells; assay: Apoptosis by flow cytometry (Annexin V / PI); assay type: cell-based, human; conditions: 100 nM, 48 hours vs 0.1% DMSO
Method: Cells were treated with various concentrations of […] and 0.1% DMSO (control) for evaluation of the impact of treatment on induction of apoptosis. Live cells were stained with Annexin V as an indicator of early apoptosis and Propidium Iodide (PI—Thermo Fisher Scientific, USA) for detection of late apoptosis and necrosis, according to manufacturer's instructions (Thermo Fisher Scientific, USA). Flow cytometric analysis was performed on a BD Fortessa instrument (BD Biosciences, USA) within an hour of staining. Data was analyzed using Modfit LT from Verity Software House. All experiments were performed in triplicates.

MON cells = assay: Time-lapse assay, nuclear area and volume; assay type: cell-based, human; conditions: 100 nM, 48 hours, p-value<0.001
Method: Cells were plated in 35 mm glass bottom dishes (Cat #150682, Thermo Fisher Scientific, USA) in normal growth medium and allowed to grow overnight. After the treatment medium was added, imaging began immediately. Brightfield images (20×) were taken every 6 minutes at 10 predetermine fields for 48 hours. Images were processed in ZEN 2.3 software (Zeiss, USA).

RT and MB cell lines [6] = assay: Clonogenic recovery assay; assay type: cell-based, human; conditions: 100 nM for 6 days, then 12 days drug-free
Method: For each cell line, 200 cells were seeded into 6-well tissue culture plates. […] On the 7th day, cell were washed with IX PBS twice and then incubated with 0.1% DMSO for an additional 12 days. […] The number of colonies was counted. All experiments were performed in triplicates.

RT and MB cell lines [7] = assay: Cell cycle analysis by flow cytometry (polyploidy); assay type: cell-based, human; conditions: multiple RT and MB cell lines
Method: (§2) Cell cycle evaluation was performed by staining the cells with PI (Thermo Fisher Scientific, USA) according to manufacturer's instructions. […] Data was analyzed using Modfit LT from Verity Software House. Experiments were performed in triplicates.

[8] = tested on: HFF-SCC058 human fibroblasts; assay: Cell cycle analysis by flow cytometry (polyploidy); assay type: cell-based
Method: as §2

[9] = Brain to plasma ratio (B:P); assay type: in vivo; conditions: male, CD-1, mouse, brain and plasma, po, 7.5 mg/kg, fasted male CD-1 mice, 4 hours post-dose, average
Method: Raw brain-to-plasma ratios (B:P) were determined by dividing the brain concentration in ng/g by the plasma concentration in ng/g (with plasma, density assumed to be of 1 g/mL). The average B:P ratio was determined to be approximately 0.08±0.3 (FIG. 12). No further CFI-400945 pharmacokinetic studies were done as part of this study.
Male CD-1 mice weighing between 20 and 40 grams were fitted with jugular vein cannulas as appropriate and fasted overnight until 4 hours post-dose. Double route of administration (oral and IV) were tested, with a single dose concentration of 7.5 mg/kg. Plasma and brain were sampled at 6 time-points, starting at 30 minutes (n=3 animals/time-point). Brain was extracted at the same plasma sampling time-point from each animal. Both plasma and brain samples were deproteinated. Brain samples were weighted, homogenized and CFI-400945 was extracted. […] The dosing solution was normalized in a matched matrix (mouse plasm) and analyzed in triplicate in the same analytical batch as the incurred samples (Absorption Systems—Exton, Pa.).

[10] = phase I, adults, preliminary results; cited from earlier work

Chain of AURKC (Q9UQB9 whole entry): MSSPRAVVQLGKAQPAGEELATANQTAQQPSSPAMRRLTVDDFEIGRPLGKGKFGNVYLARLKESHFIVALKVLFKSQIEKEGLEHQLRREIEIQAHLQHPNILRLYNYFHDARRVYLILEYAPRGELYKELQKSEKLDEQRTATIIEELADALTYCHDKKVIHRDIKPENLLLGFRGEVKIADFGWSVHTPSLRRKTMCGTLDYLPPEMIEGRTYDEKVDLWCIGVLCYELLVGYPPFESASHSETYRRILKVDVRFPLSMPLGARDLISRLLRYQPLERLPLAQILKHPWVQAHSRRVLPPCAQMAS

COc1ccc2c(c1)[C@]1(C[C@H]1c1ccc3c(/C=C/c4ccc(CN5C[C@@H](C)O[C@@H](C)C5)cc4)n[nH]c3c1)C(=O)N2 [CFI-400945]
inhibition at 0.5 µM (AURKC): 84% | IC50 (MUSK): 48.7 nM | IC50 (TEK): 109 nM | IC50 [1]: > 500 nM | invasion and migration [2]: no effects were observed | centriole number ([3]; 100 nM): increase in centriole's number | centriole number ([3]; 500 nM): significant decrease | centriole number (MON rhabdoid cells; 100 nM): slight increase in centrioles' number | centriole number (MON rhabdoid cells; 500 nM): significant depletion of centrioles | PLK4 expression (qPCR) [4]: time dependent decrease in PLK4 expression | cells undergoing cell death (apoptosis) [5]: significantly higher percentage of cells undergoing cell death | nuclear area (FC) (MON cells): 2.79 | nuclear volume (FC) (MON cells): 4.69 | ability to generate colonies after drug removal (RT and MB cell lines [6]): lost their ability to generate colonies | degree of polyploidy (RT and MB cell lines [7]): > 8 N | polyploidy [8]: not affecting | Kp at 4 h [9]: ~0.08 | tolerability [10]: well tolerated at doses up to 72 ma
